{"source": "patent US20080103127A1", "about": "“METHODS FOR TREATING DISRUPTIVE BEHAVIOR DISORDERS” (priority 2006, published 2008)", "tested_on": "dominant rats", "assay": "Reduction of Dominant Behavior Model (RDBM) of mania, dominant-submissive rat food competition test", "type": "in vivo, Sprague-Dawley rats", "text": "In this study, the effects of COMPOUND #7 on dominant or submissive behavior in pairs of rats competing for food are examined. It has been shown that anti-manic drugs, including anticonvulsants, decrease dominance and antidepressant drugs reduce submissiveness. This model uses dominant behavior as a model of mania and submissive behavior as a model of depression. The dominance and submissiveness is defined in a competition test and measured as the relative success of two food-restricted rats to gain access to a feeder. Rats are randomly paired and placed in an apparatus allowing them to compete for a food reward. The dominant-submissive relationship develops over a 2-week period. The submissive or dominant animals in pairs selected after 2 weeks of training were treated orally […] (b.i.d.) with COMPOUND #7 at 3 or 30 mg/kg for 5 weeks. The partner of the drug-treated animal was treated with vehicle.\nThe objective of this study was to determine if COMPOUND #7 is active in the Reduction of Submissive Behavior Model (RSBM) of depression and the Reduction of Dominant Behavior Model (RDBM) of mania. Measurements were made at two doses (3 and 30 mg/kg) after oral twice a day (b.i.d.) administration. The effect of the drug in the RSBM was compared to the effect of fluoxetine (10 mg/kg) and vehicle (0.5% methylcellulose). The effect of the drug in the RDBM was compared with the effect of lithium (100 mg/kg) and vehicle (0.5% methylcellulose). The endpoints measured were the development of a significant reduction of submissive or dominant behavior and its time of onset.\nThe DSR developed by two rats competing for food uses the apparatus in FIG. 1. The methodology and equipment are described in several publications. (See, Malatynska E, Goldenberg R, Shuck L, Haque A, Zamecki P, Crites G, Schindler N, Knapp R J. Reduction of submissive behavior in rats: a test for antidepressant drug activity. Pharmacology 2002; 64:8; Malatynska E, Rapp R, Crites G. Dominant behavior measured in a competition test as a model of mania. In: International Behavioral Neuroscience Society Meeting, ed. IBNSCapri, Italy, 2002, p 26.; Bonnet U. Moclobemide: therapeutic use and clinical studies. CNS Drug Rev 2003; 9:97; Danysz W, Plaznik A, Kostowski W, Malatynska E, Jarbe T U, Hiltunen A J, Archer T. Comparison of desipramine, amitriptyline, zimeldine and alaproclate in six animal models used to investigate antidepressant drugs. Pharmacol Toxicol 1988; 62:42; Knapp R J, Goldenberg R, Shuck C, Cecil A, Watkins J, Miller C, Crites G, Malatynska E. Antidepressant activity of memory-enhancing drugs in the reduction of submissive behavior model. Eur J Pharmacol 2002; 440:27; Kostowski W, Malatynska E, Plaznik A, Dyr W, Danysz W. Comparative studies on antidepressant action of alprazolam in different animal models. Pol J Pharmacol Pharm 1986; 38, 471; Malatynska E, De Leon I, Allen D, Yamamura Hi. Effects of amitriptyline on GABA-stimulated ^36Cl^− uptake in relation to a behavioral model of depression. Brain Res Bull 1995; 37:53; Malatynska E, Kostowski W. The effect of antidepressant drugs on dominance behavior in rats competing for food. Pol J Pharmacol Pharm 1984; 36:531; Malatynska E, Kostowski W. Desipramine antagonizes clonidine-induced suppression of dominance in rats: possible involvement of amygdaloid nuclei. Pol J Pharmacol Pharm 1988; 40:357).\nIn the experiments described in this report Sprague-Dawley rats weighing 160 to 180 g were used. […]"}
{"smiles": "NC(=O)OC[C@@H](O)c1ccccc1Cl", "note": "[COMPOUND #7, carisbamate]", "values": [{"measurement": "onset of significant decrease of dominant rat performance (time of treatment)", "setting": "3 mg/kg b.i.d. p.o.", "result": 3, "unit": "weeks"}, {"measurement": "extent and onset of the effect on dominant rats compared with lithium", "setting": "3 mg/kg b.i.d. p.o. vs lithium 100 mg/kg i.p.", "result": "not significantly different"}, {"measurement": "performance of dominant rats", "setting": "3 mg/kg b.i.d. p.o., 5 weeks, dominant rat treated, partner vehicle", "result": "decreased the performance"}, {"measurement": "onset of increased competitiveness of dominant rats (time of treatment)", "setting": "30 mg/kg b.i.d. p.o.", "result": 2, "unit": "weeks"}, {"measurement": "competitiveness of dominant rats compared to water treated dominant rats", "setting": "30 mg/kg b.i.d. p.o., 5 weeks, dominant rat treated", "result": "significantly increased the competitiveness"}]}
